Data: US20230112444A1, “COMBINATION THERAPIES OF CHIMERIC ANTIGEN RECEPTORS TARGETING B-CELL […] AND GAMMA SECRETASE INHIBITORS” (priority 2020, published 2023)
Read-outs that look alike come from different tables or passages of the source.

Key:
gamma secretase [1] = assay: Surface BCMA by flow cytometry / inhibition of gamma secretase activity in Molp-8 cells exposed to PF-03084014; type: cell-based, human
Experimental: (§1) The BCMA-expressing multiple myeloma cell lines MM.1S and Molp-8 (ATCC), and the BCMA-negative acute lymphocytic leukemia cell line REH (ATCC) were expanded in RPMI medium containing L-glutamine and 10% FBS in a humidified CO2 incubator set to 37 degrees. The gamma secretase inhibitor (GSI) PF-03084014 (nirogacestat in the hydrobromide salt form, Sigma-Aldrich, #PZ0298) was diluted in H2O at mg/mL and further diluted in cell culture medium as needed. Cells were cultured in the presence of increasing concentrations of PF-03084014 or vehicle (control) in a humidified CO2 incubator set to 37° C. for 4 hours or 24 hours. Cells were then harvested by centrifugation for 5 min at 400×g and stained with a phycoerythrin (PE)-labeled anti-human BCMA antibody (BioLegend, Cat #357504) for 30 min at 4° C. Samples were analyzed by flow cytometry using a Cytoflex flow cytometer (Beckman Coulter) and expression levels of BCMA (mean fluorescence intensity, MFI) were determined using FlowJo version 10.4.1. Fold-change in surface BCMA was calculated as the MFI value of GSI-treated cells divided by the MFI value of cells receiving vehicle control. Maximal (100%) inhibition of gamma-secretase activity was defined as the maximal fold-change in surface BCMA. To obtain half-maximal effective concentration (EC50) values, gMFI was plotted as a function of the logarithm of the concentration of PF-03084014. The data was then fitted using a non-linear regression (four-parameter logistic curve) function and EC50 was calculated using GraphPad.

[2] = tested on: MM.1S, Molp-8 and REH-BCMA cells; assay: In vitro cytolytic activity of BCMA CAR-T cells in the presence of PF-03084014 (luciferase); type: cell-based, human; details: PF-03084014 0.01 μM to 10 μM added during 24 hour co-culture, E:T 1:3, 1:1, 3:1 (FIG. 24)
Experimental: The multiple myeloma cell lines MM.1S and Molp-8 and the BCMA-overexpressing REH cell line (REH-BCMA cells) were used in these assays. The target cell lines have been modified to constitutively express the luciferase gene which allows assessment of cell viability via luminescence. The cytotoxic activity of BCMA CAR-T cells was determined by measuring the reduction of luminescence signal from live target cells after 24 hour co-culture with BCMA CAR-T cells at increasing effector to target (E:T) ratios (1:3, 1:1, 3:1). Briefly, 2×10^4 luciferase-expressing target cells were co-cultured with BCMA CAR-T cells at defined E:T ratios in target cell culture medium (RPMI with L-glutamine, 10% FBS) without IL-2. The GSI PF-03084014 was added to wells at increasing concentrations (0.01 μM to 10 μM) and cells were cultured in a humidified CO2 incubator set to 37° C. for 24 hours. Following the incubation period, 100 μL of Bright-GLO reagent (Promega) were added and luminescence was read on a luminometer (Spectramax; Molecular Devices). Relative luminescence units (RLU) were converted to percentage of lysed target cells using the formula 100×[1−(RLUtest/RLUcontrol)]. Untreated target cells were used to determine RLU control.

BCMA-negative REH cells = assay: Surface BCMA by flow cytometry in BCMA-negative REH control cells exposed to PF-03084014; type: cell-based, human; details: REH negative control cell line, 4-hour treatment
Experimental: as §1, with “To obtain half-maximal effective concentration (EC50) values, gMFI was plotted as a function of the logarithm of the concentration of PF-03084014.” left out

[3] = Phase 1 dose-finding study (A8641014) of nirogacestat, minimum concentration; type: in vivo, human; details: 100 mg BID, solid tumor patients; conversion of ng/mL value
Experimental: See, e.g., FIG. 22C. […] A dose of 100 mg BID nirogacestat is expected to maintain serum concentrations of nirogacestat at or above the levels required to prevent the cleavage of BCMA by gamma secretase, thereby leading to reduced soluble BCMA and increased membrane-bound BCMA.

gamma secretase [4] = assay: Surface BCMA by flow cytometry / inhibition of gamma secretase activity in MM.1S cells exposed to PF-03084014; type: cell-based, human
Experimental: as §1
(§2) In a separate experiment, cytolytic activities of BCMA CAR-T cells were evaluated after the target multiple myeloma cells were first pre-incubated with PF-03084014. FIG. 25A depicts the cell surface expression level of BCMA on the multiple myeloma cell line MM.1S and the BCMA negative control cell line […] after a 24-hour culture in the presence of increasing concentrations of the gamma secretase inhibitor PF-03084014. The data is shown as mean fluorescence intensity (MFI) values of BCMA. FIG. 25B depicts the cytolytic activity of BCMA CAR T cells against MM.1S cells previously treated with PF-03084014 for 24 hours. In the cytolytic assay, BCMA CAR T cells and target cells were co-cultured at different effector to target (E:T) ratios for 24 hours and residual target cell viability was measured using bioluminescence. Results are shown as mean+/−SEM.

BCMA CAR-T cells = assay: Target-dependent BCMA CAR-T cell proliferation in the presence of PF-03084014 (co-culture with REH-BCMA cells); type: cell-based, human; details: Day 5, up to the highest concentration (FIG. 23)
Text: A BCMA-negative acute lymphocytic leukemia cell line (REH) was genetically modified to overexpress BCMA with the use of a lentiviral vector encoding the human BCMA protein under regulatory control of the EF1alpha promoter (REH-BCMA cells). BCMA-overexpressing cells co-expressing luciferase and green fluorescent protein (GFP) were then created by transducing the cells with a Luc2AGFP/Blasticidin lentiviral vector following the manufacturer's recommendations. The exemplary BCMA CAR tested in the experiments comprises the VH amino acid sequence of SEQ ID NO: 33 and VL amino acid sequence of SEQ ID NO: 34). The BCMA CAR-T cells were generated and cryopreserved as previously described (Sommer et al., Molecular Therapy 2019, 27 (6): 1126-1138), thawed, and used in the assays as follows. Briefly, 5×10^5 CAR^+ T cells were co-cultured with 2×10^6 REH-BCMA cells in 2.5 mL of target cell medium (RPMI with L-glutamine, 10% FBS) without IL-2 using G-Rex 24-well plates. PF-03084014 was added to cells at increasing concentrations whereas the control wells received vehicle. […] On Day 5, cells were counted and the percentage of residual target cells and CAR-T cells were determined by flow cytometry analysis. […] Target-cell dependent proliferation/persistence in the presence or absence of PF-03084014 was determined by dividing the total number of CAR^+ cells by the starting cell number (5×10^5).

MM.1S cells = assay: Cytolytic activity of BCMA CAR T cells against target cells pre-incubated with PF-03084014; type: cell-based, human; details: MM.1S target cells pre-incubated with PF-03084014 for 24 hours, then 24 hours co-culture (FIG. 25B)
Experimental: as §2

[5] = 100 mg BID, solid tumor patients; cited from earlier work
[6] = 4-hour treatment, dose-dependent (FIG. 22A)

Q: What does the source list for `CCC[C@H](N[C@H]1CCc2cc(F)cc(F)c2C1)C(=O)Nc1cn(C(C)(C)CNCC(C)(C)C)cn1` [PF-03084014, nirogacestat]?
A: Levels of BCMA on the cell surface (gamma secretase [1]; [6]): increased levels of BCMA detected on the cell surface; Inhibition of gamma secretase activity (gamma secretase [1]; 24 hours treatment (FIG. 22C)): dose-dependent inhibition of gamma secretase activity; EC50 (gamma secretase [1]; 24 hours treatment, flow cytometry of surface BCMA, read-out: EC50 on gamma secretase (surface BCMA) determined using the Molp-8 cell line): 0.0224 µM; Effect on target cell killing by BCMA CAR-T cells [2]: enhanced target cell killing was not observed; Dose-dependent increase of BCMA on the cell surface (BCMA-negative REH cells): not seen; Minimum concentration (Cmin) [3]: approximately 480 nM; Levels of BCMA on the cell surface (gamma secretase [4]; [6]): increased levels of BCMA detected on the cell surface; Levels of BCMA on multiple myeloma cells (MFI) (gamma secretase [4]; 24 hours incubation (FIG. 25A)): increased levels of BCMA; Inhibition of gamma secretase activity (gamma secretase [4]; 24 hours treatment (FIG. 22C)): dose-dependent inhibition of gamma secretase activity; EC50 (gamma secretase [4]; 24 hours treatment, flow cytometry of surface BCMA, read-out: EC50 on gamma secretase (surface BCMA) determined using the MM.1S cell line): 0.00012 µM; Effect on target-dependent BCMA CAR-T cell expansion (BCMA CAR-T cells): did not negatively affect CAR-T cell expansion; Effect on cytolytic activity of BCMA CAR T cells (MM.1S cells): enhanced cytolytic effect; Minimum concentration (Cmin) [5]: 232 ng/mL
